“Also recorded” adds a separate entry of the source.
Assays:
inguinal fat pad = details: 0.2 ml s.c. once into inguinal fat pad, 8 days post-injection
paw of the rats = assay: Rat paw edema; format: in vivo, Sprague Dawley rats; details: for degree of edema in words: 2 hours after administration, rat paw; for degree of edema, 1 hour after administration / degree of edema, 2 hours after administration / degree of edema, Immediately after administration: 0.1 ml into rat paw
In short: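 Male Sprague Dawley rats (6 weeks old, 170–200 g) received 0.1 ml of PBS or test composition into the paw. Paw thickness measured by caliper before, immediately after, and 1 or 2 h post-injection; edema graded 0–4, with injection-site skin lesions photographed.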

[1] = tested on: tissues of the injected area (rat paw); assay: H&E staining histological test (inflammation) of injected rat paw; format: in vivo, Sprague Dawley rats; details: for degree of inflammation (H&E) in words: rats sacrificed at 3 hours, injected paw
Protocol: The tissues of the injected area were dissected, fixed with 10% formalin, and then the specimen was prepared and images were captured using an optical microscope. The degree of inflammation was evaluated as follows.

[2] = Formulation stability of PPC injectable preparations: property, transparency, particle size, pH
[3] = tested on: Caspase 3 in 3T3-L1 adipocytes; assay: Caspase 3 activity assay; format: cell-based; details: 0-48 hours
Protocol: The Caspase 3 activity assay was performed with the test materials to determine whether the cell death in the result of MTT assay was due to necrosis or apoptosis. The Caspase 3 specifically increases when apoptosis occurs and is a marker of apoptosis. […] The cells were then treated with 50 ul of cell lysis buffer (10 mM Tris-HCl, 10 mM NaH2PO4/NaHPO4, pH 7.5, 130 mM NaCl, 1% Triton X-100 and 10 mM sodium pyrophosphate) and left at 4° C. for […]. The supernatant was collected by centrifugation at 1000× rpm for 1 minute, and protein quantification was performed by BCA method. The 50 μl of reaction buffer (4 mM HEPES, pH 7.5, 10% glycerol, 2 mM dithiothreitol) and 0.5 μl of 4 mM DEVD-p-NA were added to each sample and reacted at 37° C. for 1 hour. Then wavelength was measured with a […] at 405 nm.

sole of the rat paws = assay: Measurement of skin lesion (erythema) on rat paw; format: in vivo, Sprague Dawley rats; details: for skin lesion (erythema) in words: 2 hours after administration;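 on grade of skin lesion (erythema), 1 hour after administration: grades − to ++++ mean no to extremely severe erythema versus before injection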;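 on grade of skin lesion (erythema), 2 hours after administration: grades − to ++++ mean no to extremely severe erythema versus before injection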;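 on grade of skin lesion (erythema), Immediately after administration: grades − to ++++ mean no to extremely severe erythema versus before injection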
In short: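 Male Sprague Dawley rats (6 weeks, 170–200 g) received 0.1 ml test composition or PBS injected into the paw. Paw thickness measured by caliper before, immediately after, and 1 or 2 h post-injection; sole lesions photographed and graded 0–4.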

3T3-L1 adipocytes [4] = assay: Adipocyte (3T3-L1) reducing effect, MTT assay; format: cell-based
Protocol: Tests were performed to compare the adipocyte reducing activity of the PPC single composition and the PPC composition solubilized with bile acids. Differentiated 3T3L-1 adipocyte lines were used to observe adipocyte reduction activity, and cell viability was monitored by MTT assay. […] Materials and methods employed in the following experiments are described below. In the following, % of the composition refers to % (w/v).
The specific test methods are as follows. […] The cells were washed twice with PBS, treated with MTT reagent (50 μl) and left at 37° C. for 2 hours. After removing the supernatant, MTT formazan crystals were dissolved in DMSO and the absorbance was measured at 540 nm using a microplate reader.
The 3T3-L1 adipocyte (ATCC) was cultured in Dulbecco's modified eagle medium (DMEM) (Invitrogen) supplemented with 10% fetal bovine serum, 100 units/ml penicillin and 100 μg/ml streptomycin under the condition of 5% CO2 and 37° C. […] Subsequently, the medium was replaced with DMEM medium containing 1 μg/ml insulin (Sigma), and the culture medium was maintained and changed every 2 to 3 days until the degree of differentiation reaches maximum. If it took more than 7 days, the cells were kept in normal DMEM culture medium until starting the tests. […] After the cells were incubated for 3 hours under the condition of 37° C. and 5% CO2, the MTT solution was removed.

3T3-L1 adipocytes [5] = assay: Lipolysis assay (glycerol release); format: cell-based; details: 48 hours; listed as GCA single
Protocol: The glycerol activity assay was performed with the test materials to determine whether the cell death in the MTT assay was due to necrosis or lipolysis. Glycerol is a specific marker that increases when fat breaks down. Abcam Lipolysis Assay Kit (Colorimetric) was used according to the manufacturer's manual, and the method of the test was as follows: […] And then the lysis was induced. […] After adding the glycerol assay complex (50 μl) thereto, the solution was incubated at room temperature for 30 minutes. Absorbance was measured at OD 570 (using standard curve for absolute determination).

[6] = bile acid single composition 1.0% (w/v)
[7] = bile acid single composition 2.5% (w/v)
[8] = bile acid single composition 5.0% (w/v)
[9] = bile acid single composition 7.5% (w/v)

inflammation at the site of administration, dermal and epidermal tissues (inguinal fat pad): inflammation was clearly observed | degree of edema in words (paw of the rats; listed as GCA 1.0%): Mild and mild | degree of edema in words (paw of the rats; listed as GCA 2.5%): moderate | degree of edema in words (paw of the rats; listed as GCA 5.0%): Moderate | Inflammation (H&E), BA % (w/v) 1.0 ([1]; bile acid single composition 1.0% (w/v), injected rat paw): + | Inflammation (H&E), BA % (w/v) 2.5 ([1]; bile acid single composition 2.5% (w/v), injected rat paw): ++ | Inflammation (H&E), BA % (w/v) 5.0 ([1]; bile acid single composition 5.0% (w/v), injected rat paw): ++ | Inflammation (H&E), BA % (w/v) 7.5 ([1]; bile acid single composition 7.5% (w/v), injected rat paw): ++ | degree of inflammation (H&E) in words ([1]; listed as GCA 1.0%): Mild | degree of inflammation (H&E) in words ([1]; listed as GCA 2.5%): moderate | minimum molar ratio to PPC for a clear solution and mixed micelle of 10 nm or less [2]: 0.76 | bile acid concentration at which stable injectable preparations can be made ([2]; based on PPC 5.0%): ≥ 2.2% | skin lesion (erythema) in words (sole of the rat paws; listed as GCA 1.0%): None | skin lesion (erythema) in words (sole of the rat paws; listed as GCA 2.5%): Mild | skin lesion (erythema) in words (sole of the rat paws; listed as GCA 5.0%): Mild | skin lesion (erythema) in words (sole of the rat paws; listed as GCA 7.5%): Moderate | grade of skin lesion (erythema), 1 hour after administration (sole of the rat paws; [6]): − | grade of skin lesion (erythema), 2 hours after administration (sole of the rat paws; [6]): − | grade of skin lesion (erythema), Immediately after administration (sole of the rat paws; [6]): − | grade of skin lesion (erythema), 1 hour after administration (sole of the rat paws; [7]): + | grade of skin lesion (erythema), 2 hours after administration (sole of the rat paws; [7]): + | grade of skin lesion (erythema), Immediately after administration (sole of the rat paws; [7]): + | grade of skin lesion (erythema), 1 hour after administration (sole of the rat paws; [8]): + | grade of skin lesion (erythema), 2 hours after administration (sole of the rat paws; [8]): + | grade of skin lesion (erythema), Immediately after administration (sole of the rat paws; [8]): + | grade of skin lesion (erythema), 1 hour after administration (sole of the rat paws; [9]): ++ | grade of skin lesion (erythema), 2 hours after administration (sole of the rat paws; [9]): ++ | grade of skin lesion (erythema), Immediately after administration (sole of the rat paws; [9]): +
SMILES: C[C@H](CCC(=O)NCC(=O)O)[C@H]1CC[C@H]2[C@@H]3[C@H](O)C[C@@H]4C[C@H](O)CC[C@]4(C)[C@H]3C[C@H](O)[C@]12C [GCA, 2-[[(4R)-4-[(3R,5S,7R,8R,9S,10S,12S,13R,14S,17R)-3,7,12-trihydroxy-10,13-dimethyl-2,3,4,5,6,7,8,9,11,12,14,15,16,17-tetradecahydro-1H-cyclopenta[a]phenanthren-17-yl]pentanoyl]amino]acetic acid]
histological change of adipocytes in fat tissue (inguinal fat pad): clear cell membrane boundary and a well-formed cell shape | degree of edema, 1 hour after administration (paw of the rats; [6]): + (mild edema [+, (the degree of swelling was 1-20% compared to before the injection)]) | degree of edema, 2 hours after administration (paw of the rats; [6]): + (mild edema [+, (the degree of swelling was 1-20% compared to before the injection)]) | degree of edema, Immediately after administration (paw of the rats; [6]): + (mild edema [+, (the degree of swelling was 1-20% compared to before the injection)]) | degree of edema, 1 hour after administration (paw of the rats; [7]): ++ (moderate edema [++, (the degree of swelling was 20-40% compared to before the injection)]) | degree of edema, 2 hours after administration (paw of the rats; [7]): ++ (moderate edema [++, (the degree of swelling was 20-40% compared to before the injection)]) | degree of edema, Immediately after administration (paw of the rats; [7]): ++ (moderate edema [++, (the degree of swelling was 20-40% compared to before the injection)]) | degree of edema, 1 hour after administration (paw of the rats; [8]): ++ (moderate edema [++, (the degree of swelling was 20-40% compared to before the injection)]) | degree of edema, 2 hours after administration (paw of the rats; [8]): ++ (moderate edema [++, (the degree of swelling was 20-40% compared to before the injection)]) | degree of edema, Immediately after administration (paw of the rats; [8]): ++ (moderate edema [++, (the degree of swelling was 20-40% compared to before the injection)]) | degree of edema, 1 hour after administration (paw of the rats; [9]): ++++ (extremely severe edema [++++, (the degree of swelling was 60% or more compared to before the injection)]) | degree of edema, 2 hours after administration (paw of the rats; [9]): ++++ (extremely severe edema [++++, (the degree of swelling was 60% or more compared to before the injection)]) | degree of edema, Immediately after administration (paw of the rats; [9]): ++ (moderate edema [++, (the degree of swelling was 20-40% compared to before the injection)]) | caspase-3 activity [3]: no time or concentration-dependent change | adipocyte viability / adipocyte-reducing activity (3T3-L1 adipocytes [4]; 24 to 96 hours, various concentrations): reduced adipocyte viability in time and concentration dependent manner | adipocyte-reducing effect at the same PPC concentration (3T3-L1 adipocytes [4]; after 96 hours, FIGS. 7F to 7H): lower adipocyte-reducing effect than PPC+GCA | glycerol release / cytolytic activity (3T3-L1 adipocytes [5]): slightly higher cytolytic activity than at 24 hours; also recorded: slightly higher cytolytic activity than that of 24 hours
